Tests used:
Assay in all cases: relative viability (nuclei count vs DMSO), 5 days (fraction); higher = more cells survive
[1] = compound: CS(=O)(=O)c1ccc(-c2cnc(N)c(C(=O)Nc3ccccc3)n2)cc1 [VE-821] + N=C(N)NC(=N)NCCc1ccccc1 [Phenformin] (partner 250 µM)
Summary of the method: (§1)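 For relative viability, nuclei counts in treated wells were divided by those in vehicle wells. Lung cancer cell lines had been pin-tool dosed in 1536-well plates the day after seeding and cultured for 5 days, then fixed and stained in one step (final 0.05% Triton X-100, 1% formaldehyde, 1 ug/ml Hoechst) and imaged at 4×. Doses were one drug alone or a fixed anchor-drug dose plus five library-drug doses (not always all listed) in √10 steps, and values are duplicate-plate medians.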

[2] = compound: N#CC[C@H](C1CCCC1)n1cc(-c2ncnc3[nH]ccc23)cn1 [Ruxolitinib] + CC(C)C[C@H](NC(=O)[C@H](Cc1ccccc1)NC(=O)c1cnccn1)B(O)O [Bortezomib] (partner 0.002 µM)
Summary of the method: as §1

[3] = compound: CS(=O)(=O)c1ccc(-c2cnc(N)c(C(=O)Nc3ccccc3)n2)cc1 [VE-821] + COc1cccc2cc(-c3nc([C@H]4CC[C@H](C(=O)O)CC4)n4ncnc(N)c34)[nH]c12 [OSI-027] (partner 0.5 µM)
Summary of the method: as §1

[4] = compound: CS(=O)(=O)c1ccc(C(=O)Nc2ccc(Cl)c(-c3ccccn3)c2)c(Cl)c1 [Vismodegib] + CC(C)C[C@H](NC(=O)[C@H](Cc1ccccc1)NC(=O)c1cnccn1)B(O)O [Bortezomib] (partner 0.002 µM)
Summary of the method: as §1

Cell Line	relative viability ([1]; first compound 0.08 µM)	relative viability ([1]; first compound 0.253 µM)	relative viability ([1]; first compound 0.8 µM)	relative viability ([1]; first compound 2.53 µM)	relative viability ([1]; first compound 8 µM)	relative viability ([2]; first compound 0.08 µM)	relative viability ([2]; first compound 0.253 µM)	relative viability ([2]; first compound 0.8 µM)	relative viability ([2]; first compound 2.53 µM)	relative viability ([2]; first compound 8 µM)	relative viability ([3]; first compound 0.08 µM)	relative viability ([3]; first compound 0.253 µM)	relative viability ([3]; first compound 0.8 µM)	relative viability ([3]; first compound 2.53 µM)	relative viability ([3]; first compound 8 µM)	relative viability ([4]; first compound 0.08 µM)	relative viability ([4]; first compound 0.253 µM)	relative viability ([4]; first compound 0.8 µM)	relative viability ([4]; first compound 2.53 µM)	relative viability ([4]; first compound 8 µM)
LXF-289	0.541	0.53	0.532	0.527	0.562	1	0.963	0.991	0.933	0.897	0.949	0.726	0.902	0.971	0.759	0.985	0.977	1.02	0.965	0.944
NCI-H23	0.812	0.743	0.785	0.844	0.479	1.12	1.02	1.34	0.89	0.731	0.486	0.531	0.483	0.624	0.331	1.16	1.01	0.931	0.986	0.944
NCI-H322M	0.504	0.766	0.741	0.577	0.364	1.18	1.31	1.26	1.52	1.64	0.533	0.519	0.577	0.482	0.286	1.25	1.12	1.22	1.23	1.13
NCI-H441	1.02	0.988	1.02	1.02	0.842	0.545	0.448	0.557	0.456	0.397	0.718	0.641	0.644	0.72	0.583	0.535	0.588	0.522	0.319	0.523
NCI-H460	0.574	0.482	0.398	0.205	0.0832	1.06	1.11	1.29	1.01	0.86	0.814	0.628	0.409	0.292	0.0463	1.13	0.929	1.19	0.998	1.2
NCI-H520	0.575	0.613	0.375	0.818	0.381	–	0.323	0.859	0.323	0.364	0.257	0.257	0.195	0.278	0.208	0.443	0.812	0.619	0.697	0.668
NCI-H596	0.78	0.635	0.735	0.871	0.631	0.964	1.17	1.21	–	0.994	0.648	0.519	0.534	0.558	0.451	0.923	1.09	0.976	1.18	1.05
NCI-H647	0.556	0.532	0.454	0.533	0.211	0.867	0.942	1.23	0.783	0.885	0.748	0.786	0.676	0.509	0.376	1.01	0.925	1.12	1.05	1.1
NCI-H650	0.448	0.429	0.45	0.494	0.468	–	0.777	0.812	0.888	0.478	0.499	0.473	0.57	0.455	0.532	0.855	0.735	0.795	0.732	0.687
NCI-H661	0.282	0.255	0.272	0.286	0.311	0.66	0.858	0.998	0.792	0.908	0.805	0.743	0.783	0.758	0.663	0.821	0.806	0.756	0.837	0.829
NCI-H727	0.503	0.552	0.547	0.537	0.385	0.997	0.845	1.14	0.941	1.07	0.721	0.624	0.619	0.54	0.355	0.876	0.835	0.905	0.939	0.77
NCI-H838	0.605	0.454	0.528	0.599	0.385	0.875	0.652	0.887	0.398	0.342	0.431	0.341	0.329	0.425	0.435	0.603	1.11	0.679	0.817	1.05
NCI-H1355	0.469	0.442	0.459	0.526	0.369	1.25	1.13	1.14	1.11	1.22	0.443	0.346	0.375	0.442	0.307	1.23	1.18	1.12	1.1	1.11
NCI-H1437	0.318	0.319	0.329	0.306	0.274	0.634	0.519	0.586	0.413	0.464	1.12	0.831	0.838	0.851	0.756	0.408	0.597	0.594	0.541	0.539
NCI-H1563	0.653	0.676	0.613	0.688	0.596	0.992	0.867	0.97	0.833	0.788	0.736	0.727	0.713	0.751	0.718	0.845	0.881	0.904	0.922	0.906
NCI-H1650	0.496	0.422	0.363	0.3	0.21	–	0.185	0.188	0.18	0.195	0.757	0.542	0.546	0.613	0.415	0.196	0.314	0.198	0.205	0.191
